Source: patent publication US10703736B2, “Configurational stereoisomer of bromadiolone, composition and rodenticide bait comprising same, and method for controlling target rodent pests” (priority 2015, dated 2020)
“Also recorded” adds a separate entry of the source.

How the values were obtained:
[1] = format: in vivo, rat; conditions: Sprague-Dawley rats, mixture D1,2 56% / D3,4 44%, about 13 mg bromadiolone per kg per os, liver on D1, D3, D7; FIG. 2
Experimental: (§1) About 0.525 g (+0.025 g) of rat liver is weighed out accurately and placed in a 50 mL polypropylene tube. 10 mL of acetone are added and the suspension is homogenized using an Ultra-Turrax® homogenizer/disperser for a time of about 30 seconds. The homogenizer/disperser shaft is rinsed with hot water and then twice with 20 mL of acetone in a polypropylene tube. The homogenate is centrifuged for 5 minutes at a centrifugation speed of 3000 rpm (revolutions per minute). The supernatant is collected and transferred into a test tube. The sample is subjected to evaporation under a stream of nitrogen (N2) at a temperature of 40° C. so as to form a dry extract.
(§2) 1 mL of acetonitrile is added to the tube containing the dry extract so as to dissolve it. The acetonitrile solution is washed twice successively with 1 mL of hexane. […]
On D1 (D+1), D3 (D+3) and D7 (D+7) after tube feeding, four rats anaesthetized beforehand with isoflurane are euthanized, the liver of the euthanized rats is removed, the bromadiolone is then extracted from the liver and the amount of each of the configurational stereoisomers of bromadiolone is assayed by high-pressure liquid chromatography analysis on a chiral column as described above. The area under the peaks of the chromatogram obtained is measured and each configurational stereoisomer of bromadiolone is quantified by comparison with a calibration curve.

[2] = system: male laboratory rats (OFA, Sprague-Dawley 200 g); experiment: Anticoagulant power of each configurational stereoisomer: coagulation time (Quick time) of plasma of tube-fed rats; format: in vivo; conditions: 1.5 mg of enantiomer per kilogram of rat by tube feeding on D0; blood on D1, D3, D7, D14; FIG. 3
Experimental: The following are administered to male laboratory rats (OFA, Sprague-Dawley 200 g) by tube feeding on D0: a composition comprising enantiomer E1 in a proportion of 1.5 mg of said enantiomer E1 per kilogram of rat; or a composition comprising enantiomer E2 in a proportion of 1.5 mg of said enantiomer E2 per kilogram of rat; or a composition comprising enantiomer E3 in a proportion of 1.5 mg of said enantiomer E3 per kilogram of rat; or a composition comprising enantiomer E4 in a proportion of 1.5 mg of said enantiomer E4 per kilogram of rat.
On these rats, blood is collected on D1, D3, D7 and D14 and measurement of the coagulation time (Quick time, expressed in seconds) of the plasma is performed using the “Neoplastine CI Determination of Prothrombin Time” kit (Diagnostica Stago, Asnibre, France) by measurement on a Thrombotimer Option 2 Plus machine (Behnk Electronik, Norderstedt, Germany).

[3] = Hepatic persistence of each configurational stereoisomer in rats tube-fed with a single stereoisomer; format: in vivo, rat; conditions: liver of rats tube-fed with the single enantiomer at 1.5 mg per kilogram; FIG. 4
Experimental: as §1, §2
The liver of the rats treated above is removed for the purposes of comparative analysis of the anticoagulant power of the configurational stereoisomers of bromadiolone, the bromadiolone is then extracted from the liver and the amount of each of the configurational stereoisomers of bromadiolone is assayed by high-pressure liquid chromatography analysis on a chiral column as described above. The area under the peaks of the chromatogram obtained is measured and each configurational stereoisomer of bromadiolone is quantified by comparison with a calibration curve. […]

SMILES | persistence in rat liver (hepatic concentration) [1] | anticoagulant effect / anticoagulant activity (coagulation time, Quick time) [2] | hepatic persistence of each enantiomer [3]
O=c1oc2ccccc2c(O)c1C(CC(O)c1ccc(-c2ccc(Br)cc2)cc1)c1ccccc1 (single isomer, unassigned) [diastereoisomer D1,2, 3-[3-(4′-bromo[1,1′-biphenyl]-4-yl)-3-hydroxy-1-phenylpropyl]-4-hydroxy-2H-1-benzopyran-2-one] | the more persistent in the liver of target rodents |  | 
O=c1oc2ccccc2c(O)c1C(CC(O)c1ccc(-c2ccc(Br)cc2)cc1)c1ccccc1 (single isomer, unassigned) [enantiomer E1, 3-[3-(4′-bromo[1,1′-biphenyl]-4-yl)-3-hydroxy-1-phenylpropyl]-4-hydroxy-2H-1-benzopyran-2-one] | longest persistence in rat liver of the four enantiomers | sufficient to maintain an anticoagulant effect up to D7; also recorded: higher anticoagulant activity than the anticoagulant activity of said enantiomer E2 and also higher than the anticoagulant activities of said two enantiomers of said diastereoisomer D3,4 | highest hepatic persistence among the bromadiolone enantiomers; also recorded: higher than the persistence in the liver of target rodent pests of said enantiomer E2 and higher than the persistence in the liver of target rodent pests of each enantiomer of said diastereoisomer D3,4
